In PMC12242654, “Design, Synthesis, and In Vitro Evaluation of the Leishmanicidal Activity of New Aromatic Symmetrical 1,4-Disubstituted 1,2,3-Bistriazoles” (ACS Omega, 2025):
Where two headings read alike, the source gives them in different places.

Experiments:
[1] = test system: promastigote forms of L. amazonensis; assay: Leishmanicidal activity against promastigote forms of L. amazonensis (resazurin); type: cell-based, Leishmania amazonensis; settings: L. amazonensis promastigotes, 72 h, read-out: IC50 ± SD promastigote
Procedure: Promastigotes of L. amazonensis (MHOM/BR/71973/M2269) were grown on 24-well plates in Schneider’s Drosophila medium (Sigma, USA) supplemented with 10.0% (v/v) heat-inactivated fetal bovine serum and 1.0% penicillin (10000 UI mL^–1)/streptomycin (10.0 mg mL^–1) (Sigma, USA). Cells were harvested in the log phase, suspended in a fresh medium, counted in Neubauer’s chamber, and adjusted to a concentration of 1 × 10^6 cells mL^–1 using 24-well plates. The compounds were added to promastigote cultures (1 × 10^6 cells mL^–1) in the range of 0.10–40.00 μg mL^–1, solubilized in dimethyl sulfoxide (DMSO) (0.6%, v/v in all wells), and incubated at 25 °C. After 72 h of incubation, resazurin was used to detect cellular metabolic activity for the determination of 50.0% inhibitory growth concentration (IC50-promastigote). All tests were performed in triplicate at three different times, and amphotericin B (Sigma) was used as the reference drug.

[2] = Murine cytotoxicity by MTT method; type: cell-based; settings: mouse; murine peritoneal macrophages, MTT; read-out: murine macrophage CC50 ± SD
Procedure: (§1) Murine cytotoxicity was assessed by the 3-(4,5-dimethylthiazol-2-yl)-2,5-diphenyltetrazolium bromide (MTT) method using murine peritoneal macrophages to determine the CC50. For this purpose, murine peritoneal macrophages were maintained in RPMI 1640 medium at 37 °C and 5% CO2, arranged in 96-well plates at a ratio of […], where the compounds to be evaluated were added at concentrations of 500, 250, 125, 62.5, 31.25, 15.625, 7.8125, and 3.90 μg mL^–1 and incubated for 24, 48, and 72 h. After incubation, 10 μL of MTT (at a concentration of 5 mg mL^–1) was added per well, with a further 4 h incubation. The cells were lysed with dimethyl sulfoxide (DMSO) and evaluated in a Shimadzu UV/vis spectrophotometer (double beam, model 2550) at 570 nm to determine the CC50 compared to the control without the addition of compounds or drugs. , The optical density obtained was then converted to the percentage of inhibition using eq so that the CC50 could then be determined by regression analysis of the data. %inhibition=[(DOcontrol−DOcompound)/DOcontrol]×100 1
(§2) The percentage of viable cells was calculated considering the cell culture control (medium + cells + DMSO = 0.6% v/v).

[3] = test system: amastigote forms of L. amazonensis; assay: Leishmanicidal activity against intracellular amastigote forms of L. amazonensis in murine peritoneal macrophages; type: cell-based; settings: Leishmania amazonensis, Peritoneal macrophage; intracellular amastigotes in murine peritoneal macrophages, 72 h, Giemsa; read-out: IC50 ± SD amastigote
Procedure: To evaluate the leishmanicidal activity in amastigotes, murine peritoneal macrophages were used and maintained in RPMI-1640 medium at 37 °C and 5% CO2 in 24-well plates. After 24 h, the nonadherent macrophages were removed, and these cells were infected with Leishmania (L.) amazonensis promastigotes in the stationary phase of the proliferation curve at a ratio of 10:1. The day after infection, the noninternalized parasites were removed, and the compounds to be evaluated were added at concentrations of 40, 10, 5, and 0.1 μg mL^–1 and incubated for 72 h at 37 °C and 5% CO2; they were then fixed in methanol and stained with 10% Giemsa (MERCK) for subsequent analysis by light microscopy. To assess the effect of the compounds, the number of amastigotes/macrophages and the number of infected macrophages were evaluated. The percentage of infected cells was considered to illustrate the results since these are expressed as CI50-amastigote. ,

[4] = Cytotoxicity on human fibroblast culture (sulforodamine B (SRB) test); type: cell-based; settings: read-out: human fibroblasts CC50 ± SD
[5] = test system: murine peritoneal macrophages; assay: Murine cytotoxicity by MTT method; type: cell-based
Procedure: as §1, §2

OC(c1ccccc1)c1cn(Cc2ccccc2)nn1 (centres unmarked) [compound 4]
IC50 ([1]; Leishmania amazonensis): 42.8 ± 2.66 µM | CC50 [2]: 322 ± 10.4 µM

OC(Cn1cc(C(=NNc2nc3ccccc3s2)c2ccccc2)nn1)Cn1cc(C(=NNc2nc3ccccc3s2)c2ccccc2)nn1 (centres unmarked) [12c, 1,3-Bis(4-((2-(benzo[d]thiazol-2-yl)hydrazineylidene)(phenyl)methyl)-1H-1,2,3-triazol-1-yl)propan-2-ol]
IC50 ([1]; Leishmania amazonensis): 19.2 ± 1.4 µM | CC50 [2]: 51.3 ± 8.57 µM

O=C(c1ccccc1)c1cn(CC(O)Cn2cc(C(=O)c3ccccc3)nn2)nn1 [compound 10, ((2-Hydroxypropane-1,3-diyl)bis(1H-1,2,3-triazole-1,4-diyl))bis(phenylmethanone)]
IC50 ([1]; Leishmania amazonensis): 44.1 ± 2.36 µM | IC50 [3]: 68.4 ± 2.61 µM | CC50 [2]: 383.9 ± 3.21 µM | CC50 [4]: 568.1 ± 2.58 µM

O=[N+]([O-])c1ccc(-c2cn(CC(O)Cn3cc(-c4ccc([N+](=O)[O-])cc4)nn3)nn2)cc1 [8b, 1,3-Bis(4-(4-nitrophenyl)-1H-1,2,3-triazol-1-yl)propan-2-ol]
IC50 ([1]; Leishmania amazonensis): 48.4 ± 1.3 µM | CC50 [2]: 305 ± 7.84 µM

N′,N‴-(((2-Hydroxypropane-1,3-diyl)bis(1H-1,2,3-triazole-1,4-diyl))bis(phenylmethaneylylidene))di(benzohydrazide) [12b]
IC50 [1]: 34.46 ± 0.28 µM | CC50 [5]: 118 ± 17.1 µM

OC(Cn1cc(C(O)c2ccccc2)nn1)Cn1cc(C(O)c2ccccc2)nn1 (centres unmarked) [compound 9, ((2-Hydroxypropane-1,3-diyl)bis(1H-1,2,3-triazole-1,4-diyl))bis(phenylmethanol)]
IC50 ([1]; Leishmania amazonensis): 62.3 ± 3.29 µM | CC50 [2]: 144.3 ± 0.94 µM

C[C@@H]1[C@H](O)[C@@H](C)/C=C/C=C/C=C/C=C/C=C/C=C/C=C/[C@H](O[C@@H]2O[C@H](C)[C@@H](O)[C@H](N)[C@@H]2O)C[C@@H]2O[C@](O)(C[C@@H](O)C[C@@H](O)[C@H](O)CC[C@@H](O)C[C@@H](O)CC(=O)O[C@H]1C)C[C@H](O)[C@H]2C(=O)O [amph B, amphotericin B, reference compound]
IC50 ([1]; Leishmania amazonensis): 1.4 ± 0.04 µM | IC50 [3]: 1.9 ± 0.07 µM | CC50 [2]: 27.1 ± 3.19 µM | CC50 [4]: 22.95 ± 0.1 µM

Cc1ccc(-c2cn(CC(O)Cn3cc(-c4ccc(C)cc4)nn3)nn2)cc1 [8c, 1,3-Bis(4-(p-tolyl)-1H-1,2,3-triazol-1-yl)propan-2-ol]
IC50 ([1]; Leishmania amazonensis): 116 ± 2.61 µM | CC50 [2]: 282.2 ± 1.65 µM
